Assay results as given in patent US10183022B2, “Pharmaceutical composition for treating ulcerative colitis” (EA Pharma Co., Ltd., priority 2014, dated 2019).

System: ulcerative colitis patients in an active stage
Assay: Clinical study, 960 mg orally 3 times a day for 8 weeks: subscore for stool frequency of Mayo score
Type: in vivo, human
Set-up: Cases by subscore for stool frequency, figure in parentheses: unit not given here
Procedure: The compound of Example 1 or the compound of Comparative Example 1 was orally administered after meals 3 times a day. The number of the given tablets was 8 per administration (i.e., the amount of the compound (1) of Example 1 administered was 960 mg per administration). The administration period was 8 weeks. The compounds were administered until the timing after the breakfast on the day before the assessment day at Week 8.
[Investigation Timings: Weeks 0, 2, 4, and 8 (or Discontinuation Time)]
Based on the contents described in the symptom-recording diaries and so on, the investigators or sub-investigators investigated stool frequencies in 3 days immediately before each assessment day. Note that when the endoscopic examination on the large intestine was conducted, the investigation days were set to be the closest three days excluding the day of the endoscopic examination on the large intestine, the following day, and if a pre-treatment was performed for the endoscopic examination on the large intestine, the pre-treatment day.
The investigators or sub-investigators investigated the stool frequency per day before the primary disease appeared, which served as a “normal frequency.” An average value (rounded to the nearest whole number) of the stool frequencies of the investigated three days was compared with the “normal frequency,” and scored according to the following criteria.

## COC(=O)[C@H](Cc1ccc(-n2c(=O)c3cc(N(C)C)ccc3n(C)c2=O)cc1)NC(=O)c1c(Cl)cccc1Cl [Example 1, methyl(2S)-2-(2,6-dichlorobenzamide)-3-{4-[6-(dimethylamino)-1-methyl-2,4-dioxo-1,4-dihydroquinazolin-3(2H)-yl]phenyl}propanoate]
Week 0, score 0
  Cases by subscore for stool frequency, figure in parentheses: 3.9
  Number of cases by subscore for stool frequency: 2
Week 0, score 1
  Cases by subscore for stool frequency, figure in parentheses: 17.6
  Number of cases by subscore for stool frequency: 9
Week 0, score 2
  Cases by subscore for stool frequency, figure in parentheses: 41.2
  Number of cases by subscore for stool frequency: 21
Week 0, score 3
  Cases by subscore for stool frequency, figure in parentheses: 37.3
  Number of cases by subscore for stool frequency: 19
Week 2, score 0
  Cases by subscore for stool frequency, figure in parentheses: 9.8
  Number of cases by subscore for stool frequency: 5
Week 2, score 1
  Cases by subscore for stool frequency, figure in parentheses: 25.5
  Number of cases by subscore for stool frequency: 13
Week 2, score 2
  Cases by subscore for stool frequency, figure in parentheses: 49.0
  Number of cases by subscore for stool frequency: 25
Week 2, score 3
  Cases by subscore for stool frequency, figure in parentheses: 15.7
  Number of cases by subscore for stool frequency: 8
Week 2 score 0, Week 0 score 0
  Number of cases, cross tabulation of subscore for stool frequency: 2
Week 2 score 0, Week 0 score 1
  Number of cases, cross tabulation of subscore for stool frequency: 1
Week 2 score 0, Week 0 score 2
  Number of cases, cross tabulation of subscore for stool frequency: 1
Week 2 score 0, Week 0 score 3
  Number of cases, cross tabulation of subscore for stool frequency: 1
Week 2 score 1, Week 0 score 0
  Number of cases, cross tabulation of subscore for stool frequency: 0
Week 2 score 1, Week 0 score 1
  Number of cases, cross tabulation of subscore for stool frequency: 6
Week 2 score 1, Week 0 score 2
  Number of cases, cross tabulation of subscore for stool frequency: 5
Week 2 score 1, Week 0 score 3
  Number of cases, cross tabulation of subscore for stool frequency: 2
Week 2 score 2, Week 0 score 0
  Number of cases, cross tabulation of subscore for stool frequency: 0
Week 2 score 2, Week 0 score 1
  Number of cases, cross tabulation of subscore for stool frequency: 2
Week 2 score 2, Week 0 score 2
  Number of cases, cross tabulation of subscore for stool frequency: 15
Week 2 score 2, Week 0 score 3
  Number of cases, cross tabulation of subscore for stool frequency: 8
Week 2 score 3, Week 0 score 0
  Number of cases, cross tabulation of subscore for stool frequency: 0
Week 2 score 3, Week 0 score 1
  Number of cases, cross tabulation of subscore for stool frequency: 0
Week 2 score 3, Week 0 score 2
  Number of cases, cross tabulation of subscore for stool frequency: 0
Week 2 score 3, Week 0 score 3
  Number of cases, cross tabulation of subscore for stool frequency: 8
Week 4, score 0
  Cases by subscore for stool frequency, figure in parentheses: 11.8
  Number of cases by subscore for stool frequency: 6
Week 4, score 1
  Cases by subscore for stool frequency, figure in parentheses: 47.1
  Number of cases by subscore for stool frequency: 24
Week 4, score 2
  Cases by subscore for stool frequency, figure in parentheses: 25.5
  Number of cases by subscore for stool frequency: 13
Week 4, score 3
  Cases by subscore for stool frequency, figure in parentheses: 15.7
  Number of cases by subscore for stool frequency: 8
Week 4 score 0, Week 0 score 0
  Number of cases, cross tabulation of subscore for stool frequency: 2
Week 4 score 0, Week 0 score 1
  Number of cases, cross tabulation of subscore for stool frequency: 1
Week 4 score 0, Week 0 score 2
  Number of cases, cross tabulation of subscore for stool frequency: 3
Week 4 score 0, Week 0 score 3
  Number of cases, cross tabulation of subscore for stool frequency: 0
Week 4 score 1, Week 0 score 0
  Number of cases, cross tabulation of subscore for stool frequency: 0
Week 4 score 1, Week 0 score 1
  Number of cases, cross tabulation of subscore for stool frequency: 7
Week 4 score 1, Week 0 score 2
  Number of cases, cross tabulation of subscore for stool frequency: 12
Week 4 score 1, Week 0 score 3
  Number of cases, cross tabulation of subscore for stool frequency: 5
Week 4 score 2, Week 0 score 0
  Number of cases, cross tabulation of subscore for stool frequency: 0
Week 4 score 2, Week 0 score 1
  Number of cases, cross tabulation of subscore for stool frequency: 1
Week 4 score 2, Week 0 score 2
  Number of cases, cross tabulation of subscore for stool frequency: 6
Week 4 score 2, Week 0 score 3
  Number of cases, cross tabulation of subscore for stool frequency: 6
Week 4 score 3, Week 0 score 0
  Number of cases, cross tabulation of subscore for stool frequency: 0
Week 4 score 3, Week 0 score 1
  Number of cases, cross tabulation of subscore for stool frequency: 0
Week 4 score 3, Week 0 score 2
  Number of cases, cross tabulation of subscore for stool frequency: 0
Week 4 score 3, Week 0 score 3
  Number of cases, cross tabulation of subscore for stool frequency: 8
Week 8, score 0
  Cases by subscore for stool frequency, figure in parentheses: 21.6
  Number of cases by subscore for stool frequency: 11
Week 8, score 1
  Cases by subscore for stool frequency, figure in parentheses: 45.1
  Number of cases by subscore for stool frequency: 23
Week 8, score 2
  Cases by subscore for stool frequency, figure in parentheses: 17.6
  Number of cases by subscore for stool frequency: 9
Week 8, score 3
  Cases by subscore for stool frequency, figure in parentheses: 15.7
  Number of cases by subscore for stool frequency: 8
Week 8 score 0, Week 0 score 0
  Number of cases, cross tabulation of subscore for stool frequency: 2
Week 8 score 0, Week 0 score 1
  Number of cases, cross tabulation of subscore for stool frequency: 3
Week 8 score 0, Week 0 score 2
  Number of cases, cross tabulation of subscore for stool frequency: 4
Week 8 score 0, Week 0 score 3
  Number of cases, cross tabulation of subscore for stool frequency: 2
Week 8 score 1, Week 0 score 0
  Number of cases, cross tabulation of subscore for stool frequency: 0
Week 8 score 1, Week 0 score 1
  Number of cases, cross tabulation of subscore for stool frequency: 5
Week 8 score 1, Week 0 score 2
  Number of cases, cross tabulation of subscore for stool frequency: 11
Week 8 score 1, Week 0 score 3
  Number of cases, cross tabulation of subscore for stool frequency: 7
Week 8 score 2, Week 0 score 0
  Number of cases, cross tabulation of subscore for stool frequency: 0
Week 8 score 2, Week 0 score 1
  Number of cases, cross tabulation of subscore for stool frequency: 1
Week 8 score 2, Week 0 score 2
  Number of cases, cross tabulation of subscore for stool frequency: 5
Week 8 score 2, Week 0 score 3
  Number of cases, cross tabulation of subscore for stool frequency: 3
Week 8 score 3, Week 0 score 0
  Number of cases, cross tabulation of subscore for stool frequency: 0
Week 8 score 3, Week 0 score 1
  Number of cases, cross tabulation of subscore for stool frequency: 0
Week 8 score 3, Week 0 score 2
  Number of cases, cross tabulation of subscore for stool frequency: 1
Week 8 score 3, Week 0 score 3
  Number of cases, cross tabulation of subscore for stool frequency: 7
